In patent publication US20110053897A1 (IRM LLC, priority 2009, published 2011) one finds IC50 data, which are given here for 54 compounds.

In the first test the target is T1, Syk kinase (Homo sapiens, UniProt P43405).
T1 construct: purchased
The test is described as follows: Syk kinase inhibition, Caliper LabChip off-chip mobility-shift kinase assay. It counts as biochemical. Conditions: Caliper LabChip assay; read-out: Syk Enzyme IC50. The procedure:
Compounds of the examples and Table 1 provided herein were assayed to measure their capacity to inhibit Syk kinase.
Compounds of the examples and Table 1 provided herein were assessed for their ability to inhibit Syk kinase by utilizing Caliper Life Sciences' proprietary LabChip™ technology. The off-chip incubation mobility-shift kinase assay uses a microfluidic chip to measure the conversion of a fluorescent peptide substrate to a phosphorylated product. The reaction mixture, from a microtiter plate well, is introduced through a capillary sipper onto the chip, where the nonphosphorylated substrate and phosphorylated product are separated by electrophoresis and detected via laser induced fluorescence. […] The phosphorylated product migrates through the chip faster than the non-phosphorylated substrate, and signals from the two forms of the peptide appear as distinct peaks. Caliper's data analysis software (HTSWA) determines peak heights, from which the ratio of product to the peak sum P/(P+S) and percent (%) conversion is calculated. This value is used to compare compound wells to control wells present on the plate, and thereby determine the % inhibition values for the compound. The formula used to calculate % inhibition is as follows, where C100% is the average % conversion of the 100% activity wells and Co% is the average % conversion of the 0% activity wells: (1−(% conversionofsample−C0%)/(C100%−C0%))*100.
Compounds (10 mM stocks in 100% DMSO) are diluted to a final concentration of 5 μM for single point inhibition experiments, and a series dilution of 10, 3, 1, 0.3, 0.1, 0.03, 0.01, 0.003, 0.001, 0.0003, 0.0001, and 0.00003 μM were made for IC50 determination. Generally, 12 μL of enzyme buffer containing purified kinase (various amount; various suppliers), 100 mM HEPES, pH 7.5, 1 mM DTT (Calbiochem, 2333153), 10 mM MgCl2 (Sigma, M-1028) or 10 mM MnCl2 (Sigma, M-1787) (assay specific), and 0.002% Brij-35 (Sigma, B4184) are added to each well. Compound and enzyme are allowed to pre-incubate for 15 minutes. 12 μL of peptide/ATP buffer containing 100 mM HEPES, pH 7.5, 1.5 μM fluorescein-labeled peptide (specific to kinase of interest), ATP (at KM apparent, Sigma, A9187), and 0.002% Brij-35 is then added to each well to initiate the reaction. The final concentration of DMSO in the well is 4%. Generally, reactions are incubated for 1 to 1.5 hours at room temperature to obtain adequate conversion of peptide to phosphorylated product in the linear range of the reaction. Reactions are terminated with the addition of 45 μL of Stop Buffer (containing 20 mM EDTA). Plates are then read on the LabChip 3000 using a 12-sipper LabChip. % conversion values and % inhibition values are obtained as provided and IC50 curves of compounds are generated using GraphPad Prism Version 4 or 5.01, or XLfit Version 4.3.2. When using GraphPad Prism, a nonlinear curve fit using the sigmoidal dose response—variable slope fit was used to graph IC50 curves and determine IC50 values and hillslopes. When using XLfit, Fit Model 205 (4-Parameter Logistic Model) is used to generate and fit the IC50 curve.
Broadly, the IC50 is the concentration at which inhibition is half-maximal. Consider `CC(O)c1ccnc(Nc2cc3ccn(CC(N)=O)c(=O)c3c(NC3(C)CCC3)n2)c1` (stereo not drawn) [compound 721], for which the IC50 came to 18 nM.

`Cn1ccc2cc(Nc3nccc(O)n3)nc(N[C@H]3CC[C@H](O)CC3)c2c1=O` [compound 799]: the IC50 came out at 29 nM. With `Cc1nc(-c2ccnc(Nc3cc4ccn(CCO)c(=O)c4c(NC(C)(C)C)n3)c2)no1` [compound 873], the IC50 turned out to be 27 nM. As for `CCn1ccc2cc(Nc3cc(C)ccn3)nc(Nc3ccc(C(=O)N4CCC(O)CC4)cc3)c2c1=O` [compound 835], the IC50 came out at 131 nM. Same read-out and setting: under `Nc1ncc(-c2cc3ccn(CCO)c(=O)c3c(N[C@H]3CC[C@@H](CO)C3)n2)cn1` [compound 912] stands 2 nM; under `CC(C)(C)Nc1nc(Nc2cc(N3CCC(CO)CC3)ccn2)cc2ccn(CCO)c(=O)c12` [compound 847], 500 nM. Still for that read-out and setting: under `CCn1ccc2cc(Nc3cc(C)ccn3)nc(N[C@H](C)CO)c2c1=O` [compound 962] stands 92 nM; under `CC(C)(C)Nc1nc(-c2cnc(N)nc2)cc2ccn(C[C@H](O)CO)c(=O)c12` [compound 935], 8 nM; under `CCn1ccc2cc(-c3cnc(N)nc3)nc(N[C@@H]3CCC(F)C3)c2c1=O` (stereo partly drawn) [compound 749], 45 nM. The same measure, in the same setting: under `CC(=O)c1cc(Nc2cc3ccn(CCO)c(=O)c3c(NC(C)(C)C)n2)ncn1` [compound 633, 6-(6-acetylpyrimidin-4-ylamino)-8-(tert-butylamino)-2-(2-hydroxyethyl)-2,7-naphthyridin-1(2H)-one] stands 273 nM; under `CC(C)(C)Nc1nc(Nc2cc(-c3cn[nH]c3)ccn2)cc2ccn(CCO)c(=O)c12` [compound 840], 117 nM; under `C[C@@H](CO)Oc1cc(Nc2cc3ccn(C[C@H](O)CO)c(=O)c3c(NC(C)(C)C)n2)ncn1` [compound 643, 8-(tert-butylamino)-2-((S)-2,3-dihydroxypropyl)-6-(6-((S)-1-hydroxypropan-2-yloxy)pyrimidin-4-ylamino)-2,7-naphthyridin-1(2H)-one], 9 nM. `[2H][C@]1(O)CC[C@H](Nc2nc(Nc3cc(C)ccn3)cc3ccn(CC)c(=O)c23)CC1` [compound 990]: the IC50 is 20 nM. Still for that read-out and setting: under `CC(C)(C)Nc1nc(Nc2ccc(F)cn2)cc2ccn(CCO)c(=O)c12` [compound 696] stands 328 nM. Turning to `[2H]C([2H])([2H])n1ccc2cc(-c3cnc(N)nc3)nc(N[C@H]3CC[C@@H](O)CC3)c2c1=O` [compound 1026], the IC50 worked out at 21 nM. Same read-out and setting: under `CCn1ccc2cc(-c3cnc(N)nc3)nc(N[C@H]3C[C@@H](CO)C3)c2c1=O` [compound 748] stands 7 nM; under `CCn1ccc2cc(Nc3cnccn3)nc(N[C@H]3CC[C@@H](CO)C3)c2c1=O` [compound 793], 18 nM.

As to `CC(C)(O)Cn1ccc2cc(-c3cnc(N)nc3)nc(NC(C)(C)C)c2c1=O` [compound 928], the IC50 was determined as 44 nM. Still for that read-out and setting: under `CCn1ccc2cc(Nc3cnccn3)nc(N[C@@H]3CCC[C@@H]3CO)c2c1=O` [compound 942] stands 87 nM; under `CC(C)(C)Nc1nc(Nc2cnccn2)cc2ccn(Cc3ccncc3)c(=O)c12` [compound 1019], 301 nM; under `C#CCn1ccc2cc(Nc3cnccn3)nc(NC(C)(C)C)c2c1=O` [compound 882], 51 nM.

`CC(C)(C)Nc1nc(-c2cnc(N)c(CO)c2)cc2ccn(CCO)c(=O)c12` [compound 720]: the IC50 stood at 75 nM.

For the compound `CC(C)(C)Nc1nc(Nc2cc(N3CCC(O)CC3)ccn2)cc2ccn(CCO)c(=O)c12` [compound 846], the IC50 turned out to be 216 nM. The same measure, in the same setting: under `CCn1ccc2cc(Nc3nccc(O)n3)nc(NC[C@@H]3CC[C@@H](O)C3)c2c1=O` [compound 959] stands 41 nM.

Turning to `CCn1ccc2cc(Nc3cc(C)ccn3)nc(N[C@H](CO)C(C)(C)C)c2c1=O` [compound 806], the IC50 is 568 nM. The same measure, in the same setting: under `C[C@@H](CO)Nc1nc(Nc2cnccn2)cc2ccn(CCF)c(=O)c12` [compound 1000] stands 74 nM. Same read-out and setting: under `CC(C)(C)Nc1nc(Nc2cnccn2)cc2ccn(C(C)(C)C(N)=O)c(=O)c12` [compound 672] stands 34 nM.

The test is the same for the next values; noted with them: read-out: Syk Enzyme IC50.
With `COc1cncc(-c2cc3cc[nH]c(=O)c3c(Nc3ccc(C(=O)NCCN4CCCC4)cc3)n2)n1` [compound 82], the IC50 is 14 nM.

Take `Cc1ccnc(Nc2cc3cc[nH]c(=O)c3c(NC(C)C(C)C)n2)c1` (stereo not drawn) [compound 268]: the IC50 amounted to 343 nM.

On to `Cc1ccnc(Nc2cc3ccn(C)c(=O)c3c(NC[C@@H](C)O)n2)c1` [compound 511], for which the IC50 turned out to be 86 nM.

`Cc1ccnc(Nc2cc3cc[nH]c(=O)c3c(N[C@H](C)CO)n2)c1` [compound 295]: the IC50 was determined as 20 nM. On the same count and under the same terms, under `CC(=O)c1cc2cc[nH]c(=O)c2c(Nc2ccc(N3CCO[C@H](C)C3)c(C)c2)n1` [compound 220] stands 807 nM; under `Cc1cc(C)nc(Nc2cc3cc[nH]c(=O)c3c(Nc3ccc(C4CCN(C5CC5)CC4)c(C)c3)n2)c1` [compound 256], 141 nM; under `COCCn1ccc2cc(Nc3cnccn3)nc(NC(C)C)c2c1=O` [compound 319], 137 nM. The same measure, in the same setting: under `Cc1ccnc(Nc2cc3cc[nH]c(=O)c3c(NC(C)(C)CO)n2)c1` [compound 488] stands 21 nM; under `COc1ncc(-c2cc3c(F)c[nH]c(=O)c3c(Nc3ccc(N4CCOCC4)cc3)n2)cn1` [compound 430], 120 nM; under `COc1cncc(-c2cc3cc[nH]c(=O)c3c(Nc3ccc(C4CCN(CCN(C)C)CC4)c(C)c3)n2)n1` [compound 63], 33 nM. The same measure, in the same setting: under `COc1cncc(-c2cc3cc[nH]c(=O)c3c(Nc3ccc(CCN4CCN(CCC#N)CC4)cc3)n2)n1` [compound 66] stands 55 nM; under `COCCCN1CCC(c2ccc(Nc3nc(-c4cncnc4)cc4cc[nH]c(=O)c34)cc2F)CC1` [compound 197], 35 nM; under `COc1cncc(-c2cc3cc[nH]c(=O)c3c(Nc3ccc(CCN4CCNC(=O)C4)cc3)n2)n1` [compound 155], 55 nM. As to `COc1cncc(-c2cc3cc[nH]c(=O)c3c(Nc3ccc(C4CCN(C(C)C(=O)NC5CC5)CC4)c(C)c3)n2)n1` (stereo not drawn) [compound 121], the IC50 worked out at 183 nM.

On to `Cc1ccnc(Nc2cc3ccn(C)c(=O)c3c(NC(C)(C)CO)n2)c1` [compound 499], for which the IC50 worked out at 31 nM. The same measure, in the same setting: under `Cn1ccc2cc(Nc3cnccn3)nc(Nc3ccc(S(C)(=O)=O)cc3)c2c1=O` [compound 336] stands 584 nM; under `O=c1[nH]ccc2cc(Nc3ccccn3)nc(N[C@H]3CCC[C@H]3O)c12` (racemic) [compound 280], 62 nM. For the compound `CC(C)Nc1nc(Nc2cnccn2)cc2cc[nH]c(=O)c12` [compound 462], the 50% inhibitory concentration (IC50) came out at 30 nM. On the same count and under the same terms, under `Cc1cc(Nc2nc(Nc3ccc(C#N)cn3)cc3cc[nH]c(=O)c23)ccc1N1CCO[C@H](C)C1` [compound 557] stands 3350 nM. Still for that read-out and setting: under `Cc1cc(Nc2nc(Nc3ccc(C(N)=O)cn3)cc3cc[nH]c(=O)c23)ccc1C1CCN(C2CC2)CC1` [compound 251] stands 58 nM.

As to `CN(C)CCn1ccc2cc(Nc3cnccn3)nc(N[C@H]3CC[C@@H](O)CC3)c2c1=O` [compound 387], the IC50 turned out to be 33 nM. On to `COCC(=O)N1CCC(c2ccc(Nc3nc(-c4cncc(OC)n4)cc4cc[nH]c(=O)c34)cc2C)CC1` [compound 49], for which the IC50 stood at 75 nM. On the same count and under the same terms, under `CCN1CCN(CCc2ccc(Nc3nc(Nc4ccc(Cl)cn4)cc4cc[nH]c(=O)c34)cc2)CC1` [compound 536] stands 398 nM; under `COc1cncc(-c2cc3cc[nH]c(=O)c3c(Nc3ccc(C4CCN(C5CS(=O)(=O)C5)CC4)c(C)c3)n2)n1` [compound 42], 26 nM; under `CC[C@H](C)Nc1nc(Nc2cc(C)ccn2)cc2cc[nH]c(=O)c12` [compound 283], 443 nM. Same read-out and setting: under `COc1cncc(-c2cc3cc[nH]c(=O)c3c(Nc3ccc(C4CCN(C(C)CC#N)CC4)c(C)c3)n2)n1` (stereo not drawn) [compound 171] stands 160 nM; under `CCN1CCC(c2ccc(Nc3nc(-c4cncc(OC)n4)cc4cc[nH]c(=O)c34)cc2C)CC1` [compound 137], 10 nM.
